From paper PMC11842588, “A first-in-class selective inhibitor of ERK1/2 and ERK5 overcomes drug resistance with a single-molecule strategy” (Signal Transduction and Targeted Therapy, 2025)

Key:
MDA-MB-231 cells = assay: MTT cell viability assay; assay type: cell-based
Method: (§1) MDA-MB-468 and MDA-MB-436 cells were cultured in Leibovitz’s L-15 medium supplemented with 10% fetal bovine serum. […] All of the cells were cultured at 37 °C in a humidified atmosphere containing 5% CO2.
(§2) Cancer cells were seeded in a density in 96-well plates (2 × 10^3 cells per well). After incubation for 24 h, cancer cells were treated with compounds (0–20 μM) for 72 h.

MDA-MB-468 cells = assay: MTT cell viability assay; assay type: cell-based
Method: as §1, §2

MDA-MB-231 xenograft = MDA-MB-231 xenograft tumor growth inhibition; assay type: in vivo, nude mice (BALB/c-nu); settings: 50 mg/kg (each drug), intragastric once daily, 16 days, by tumor weight
Method: All procedures were performed in accordance with the Laboratory Animals Welfare Act, the Guide for the Care and Use of Laboratory Animals and the Guidelines and Policies. The rodent experiment was approved by IACUC (Institutional Animal Care and Use Committee) in the Experimental Animal Ethics Committee of West China Hospital (Approval No. 2021672A). 48 female nude mice (BALB/c-nu, 5 weeks, 15–18 g, purchased from Beijing HFK Bio-Technology Co., LTD) were acclimatized for one week in an SPF-grade animal facility (ventilated, 20–25 °C, 50–60% humidity). […] When the tumor volume reached approximately 100 mm^3 (V = L × W^2/2), the mice were randomly divided into six groups (n = 8 per group): (1) Control group (normal saline); (2) 25 mg/kg SKLB-D18-treated group; (3) 50 mg/kg SKLB-D18-treated group; (4) 50 mg/kg BVD-523-treated group; (5) 50 mg/kg XMD8-92-treated group; (6) BVD-523 (50 mg/kg) and XMD8-92 (50 mg/kg) combined treatment group. Drugs were freshly prepared with 5% DMSO, 10% Solutol HS-15, and 85% normal saline on the day of administration. Intragastric administration occurred once daily at the same time for 16 consecutive days. And the body weight and tumor volume of mice were measured every three days. After the administration period, all nude mice were euthanized by cervical dislocation the next day. Tumors and vital organs (heart, liver, spleen, lung, kidney) were dissected, and tumors were weighed, then immediately fixed in 4% paraformaldehyde or stored in −80 °C.

ERK1 = ERK1 (Homo sapiens, UniProt P27361); assay: ADP-Glo kinase assay; assay type: biochemical; settings: for inhibition at 0.5 µM: read-out: Enzyme inhibitory activity (500 nM, %) ERK1
Method: (§3) The full-length human ERK1 or ERK2 with His-tag was cloned into a pET28a vector. hERK1/2 were expressed in Escherichia coli BL21(DE3), and then were purified using sequential Ni-NTA and Superdex 200 column steps. The SEC purified sample was then concentrated to 10 mg/ml and stored at −80 °C with buffer containing 20 mM HEPES pH 7.5, 150 mM NaCl. ERK5 (residues 48–395) containing His and GST tags was cloned into the pFastBac vector, and the recombinant plasmid was extracted. The recombinant plasmid was transformed into the DH10bac strain, and monoclonal was selected for culture. The recombinant Bacmid was then extracted according to the instructions of the Baculovirus Shuttle Vector Bacmid Mini Preparation Kit (Beyotime) and validated by PCR. 1 × 10^6/well Sf9 cells were counted for transfection and then amplified to obtain P3 ERK5 recombinant baculovirus. It was added to 2 × 10^6/mL Sf9 cells and incubated at 27 °C for 72 h on a shaker to express ERK5. Cells were lysed and supernatant was collected on a Ni-NTA for purification, and a 250 mM imidazole eluate was collected. Next, digestion by TEV protease was performed overnight while dialysis was performed in approximately 1000 mL of imidazole-free buffer. The digested ERK5 protein was sequentially purified on the Ni-NTA and GST-tag Purification Resin, followed by size exclusion chromatography on a Superdex 75 column. ERK5 protein was collected and concentrated to 12 mg/ml and stored at −80 °C in buffer containing 50 mM HEPES pH 8.0, 200 mM NaCl, 10% (v/v) glycerol.
(§4) ERK1/2/5 kinase activity assay was conducted using ADP-Glo™ Kinase Assay. 2× ATP solution and 2× kinase & Metal solution were prepared using assay buffer were prepared using assay buffer containing 50 mM Hepes pH 7.5, 10 mM MgCl2; 0.01% Brij35, 1 mM EGTA, 2 mM DTT. Transfer 40 nL compounds to 384 assay plate. Add 2 μL of 2× kinase & Metal solution were mixed and incubated in a 384-assay plate for 10 min at 25 °C. 2 μL of 2×ATP solution was added and incubated at 25 °C for 60 min. And then, each well was supplemented with 4 µL of ADP-Glo^TM reagent and incubated at 25 °C for 40 min. Subsequently, 8 µL of Kinase Detection Reagent was added and incubated at 25 °C for 40 min. Finally, the luminescence signals were recorded. The IC50 values were calculated using GraphPad Prism 9.5 software.

ERK2 = ERK2 (Homo sapiens, UniProt P28482); assay: ADP-Glo kinase assay; assay type: biochemical; settings: for inhibition at 0.5 µM: read-out: Enzyme inhibitory activity (500 nM, %) ERK2
Method: as §3, §4

ERK5 = ERK5 (Homo sapiens, UniProt Q13164); assay: ADP-Glo kinase assay; assay type: biochemical; settings: for inhibition at 0.5 µM: read-out: Enzyme inhibitory activity (500 nM, %) ERK5
Method: as §3, §4

Chain of ERK5 (Q13164 whole entry): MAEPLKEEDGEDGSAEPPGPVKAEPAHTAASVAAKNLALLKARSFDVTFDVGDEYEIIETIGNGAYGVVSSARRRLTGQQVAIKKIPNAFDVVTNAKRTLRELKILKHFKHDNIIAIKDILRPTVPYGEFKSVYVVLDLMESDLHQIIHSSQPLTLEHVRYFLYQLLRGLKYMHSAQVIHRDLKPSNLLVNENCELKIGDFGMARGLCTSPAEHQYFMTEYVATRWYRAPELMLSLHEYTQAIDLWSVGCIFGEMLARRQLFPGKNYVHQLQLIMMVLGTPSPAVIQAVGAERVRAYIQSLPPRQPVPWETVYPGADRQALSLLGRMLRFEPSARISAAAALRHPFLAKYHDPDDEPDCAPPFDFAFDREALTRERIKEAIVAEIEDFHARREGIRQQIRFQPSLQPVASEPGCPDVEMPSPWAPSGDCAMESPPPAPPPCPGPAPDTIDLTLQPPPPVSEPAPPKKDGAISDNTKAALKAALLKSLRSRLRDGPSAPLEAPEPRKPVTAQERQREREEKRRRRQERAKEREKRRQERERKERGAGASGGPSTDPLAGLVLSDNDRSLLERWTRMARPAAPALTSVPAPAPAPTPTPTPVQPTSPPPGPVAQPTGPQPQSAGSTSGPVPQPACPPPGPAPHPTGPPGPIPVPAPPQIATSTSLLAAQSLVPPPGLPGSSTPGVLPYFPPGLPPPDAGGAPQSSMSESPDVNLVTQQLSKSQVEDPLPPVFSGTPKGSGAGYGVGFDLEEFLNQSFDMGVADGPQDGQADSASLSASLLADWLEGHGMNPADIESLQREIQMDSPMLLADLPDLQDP
Chain of ERK1 (P27361 whole entry, the tested form may be a part): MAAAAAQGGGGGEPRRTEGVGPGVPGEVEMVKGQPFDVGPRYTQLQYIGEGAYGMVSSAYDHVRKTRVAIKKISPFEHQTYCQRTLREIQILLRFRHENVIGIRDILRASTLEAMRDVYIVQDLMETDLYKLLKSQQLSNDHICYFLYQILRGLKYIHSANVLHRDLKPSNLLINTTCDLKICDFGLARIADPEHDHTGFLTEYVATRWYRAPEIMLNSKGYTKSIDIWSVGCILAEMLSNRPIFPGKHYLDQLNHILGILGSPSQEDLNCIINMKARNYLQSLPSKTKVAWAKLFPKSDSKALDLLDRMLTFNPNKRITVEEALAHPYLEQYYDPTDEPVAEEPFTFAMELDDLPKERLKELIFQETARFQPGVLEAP
Chain of ERK2 (P28482 whole entry): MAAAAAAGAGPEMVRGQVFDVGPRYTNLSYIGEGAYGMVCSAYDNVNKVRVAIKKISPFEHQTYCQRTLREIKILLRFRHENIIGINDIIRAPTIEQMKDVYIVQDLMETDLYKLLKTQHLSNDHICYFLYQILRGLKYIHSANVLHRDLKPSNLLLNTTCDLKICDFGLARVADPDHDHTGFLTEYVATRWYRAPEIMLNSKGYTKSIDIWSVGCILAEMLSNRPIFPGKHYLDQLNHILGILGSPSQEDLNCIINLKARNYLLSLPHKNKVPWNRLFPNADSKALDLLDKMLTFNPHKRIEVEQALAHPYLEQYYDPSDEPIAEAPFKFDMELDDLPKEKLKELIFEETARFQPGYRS

| Structure (SMILES) | IC50 (MDA-MB-231 cells; Homo sapiens, MDA-MB-231, read-out: IC50 MDA-MB-231, MTT, 72 h) [µM] | IC50 (MDA-MB-468 cells; Homo sapiens, MDA-MB-468, MTT, 72 h) [µM] | tumor inhibition rate (MDA-MB-231 xenograft) [%] | Enzyme inhibitory activity (500 nM, %) ERK1 (ERK1) [%] | Enzyme inhibitory activity (500 nM, %) ERK2 (ERK2) [%] | Enzyme inhibitory activity (500 nM, %) ERK5 (ERK5) [%] | Anti-proliferative activity (10 μM, %) MDA-MB-231 (MDA-MB-231 cells) [%] | Anti-proliferative activity (10 μM, %) MDA-MB-468 (MDA-MB-468 cells) [%] | inhibition at 0.5 µM (ERK1) [%] | inhibition at 0.5 µM (ERK2) [%] | inhibition at 0.5 µM (ERK5) [%] |
| --- | --- | --- | --- | --- | --- | --- | --- | --- | --- | --- | --- |
| CC(C)Nc1cc(-c2c[nH]c(C(=O)N[C@H](CO)c3cccc(Cl)c3)c2)c(Cl)cn1 [BVD-523, reference compound] | 6.47 ± 0.19 | 5.26 ± 0.66 | 36.01 |  |  |  |  |  |  |  |  |
| CCOc1cc(N2CCC(O)CC2)ccc1Nc1ncc2c(n1)N(C)c1ccccc1C(=O)N2C [XMD8-92] |  |  | 7.75 |  |  |  |  |  |  |  |  |
| Cc1cc(NC(=O)c2cc(-c3nc(Nc4ccnn4C)ncc3Cl)cs2)ccn1 [6g] |  |  |  | 70.32 ± 0.91 | 72.75 ± 2.14 | 73.61 ± 3.12 | 6.82 ± 2.13 | 20.23 ± 0.32 |  |  |  |
| COc1ccc(NC(=O)c2cc(-c3nc(Nc4cccc(N(C)C)c4)ncc3Cl)cs2)cc1 [9h] |  |  |  | 77.02 ± 3.21 | 78.90 ± 2.31 | 65.54 ± 0.88 | 11.21 ± 0.47 | 20.15 ± 0.77 |  |  |  |
| CN1CCN(NC(=O)c2cc(-c3nc(Nc4ccnn4C)ncc3Cl)cs2)CC1 [6a, 4-(5-chloro-2-((1-methyl-1H-pyrazol-5-yl)amino)pyrimidin-4-yl)-N-(4-methylpiperazin-1-yl)thiophene-2-carboxamide] |  |  |  |  |  |  | 15.06 ± 0.35 | 10.78 ± 1.32 | 95.72 ± 0.65 | 97.4 ± 3.45 | 63.8 ± 0.32 |
| COc1ccc(NC(=O)c2cc(-c3nc(Nc4ccnn4C)ncc3Cl)cs2)cc1OC [6ag, 4-(5-chloro-2-((1-methyl-1H-pyrazol-5-yl)amino)pyri-midin-4-yl)-N-(3,4-dimethoxyphenyl)thiophene-2-carboxamide] |  |  |  | 92.13 ± 1.04 | 94.53 ± 1.21 | 65.13 ± 0.90 | 33.67 ± 0.08 | 25.61 ± 0.45 |  |  |  |
| Cn1nccc1Nc1ncc(Cl)c(-c2csc(C(=O)Nc3cccc(C(F)(F)F)c3)c2)n1 [6m] |  |  |  | 50.98 ± 3.23 | 53.43 ± 0.43 | 35.45 ± 1.32 | 34.62 ± 1.24 | 30.41 ± 0.68 |  |  |  |
| CN1CCN(C(=O)c2cc(-c3nc(Nc4ccnn4C)ncc3Cl)cs2)CC1 [6b] |  |  |  | 40.45 ± 1.23 | 39.03 ± 2.13 | 28.02 ± 1.34 | 3.15 ± 1.22 | 25.81 ± 2.43 |  |  |  |
| CCc1cccc(NC(=O)c2cc(-c3nc(Nc4ccnn4C)ncc3Cl)cs2)c1 [6r] |  |  |  | 88.34 ± 1.78 | 89.45 ± 1.55 | 67.34 ± 3.20 | 15.53 ± 0.90 | 30.21 ± 1.11 |  |  |  |
| CN(C)Cc1cccc(Nc2ncc(Cl)c(-c3csc(C(=O)Nc4ccncn4)c3)n2)c1 [18i] |  |  |  | 2.13 ± 1.56 | -1.29 ± 0.02 | 71.14 ± 0.43 | 41.35 ± 1.20 | 30.29 ± 0.83 |  |  |  |
| Cn1nccc1Nc1ncc(Cl)c(-c2csc(C(=O)Nc3cccc(OC(F)(F)F)c3)c2)n1 [6n] |  |  |  | 67.08 ± 0.98 | 66.54 ± 2.11 | 18.64 ±2.32 | 43.93 ± 0.21 | 33.21 ± 0.54 |  |  |  |
| Cc1cc(NC(=O)c2cc(-c3nc(Nc4cccc(CN(C)C)c4)ncc3Cl)cs2)ccn1 [18j, 4-(5-chloro-2-((3-((dimethylamino)methyl)phenyl)amino)pyrimidin-4-yl)-N-(2-methylpyridin-4-yl)thiophene-2-carboxamide] |  |  |  |  |  |  | 39.25 ± 0.21 | 59.17 ± 2.12 | 7.98 ± 0.6 | 5.97 ± 1.02 | 81.8 ± 2.1 |
| Cn1nccc1Nc1ncc(Cl)c(-c2csc(C(=O)Nc3cccc(Br)c3)c2)n1 [6l] |  |  |  | 47.12 ± 9.23 | 46.65 ± 0.32 | 32.34 ± 0.89 | 33.90 ± 1.22 | 23.35 ± 2.37 |  |  |  |
| COc1ccc(NC(=O)c2cc(-c3nc(Nc4ccn(C)n4)ncc3Cl)cs2)cc1 [9a] |  |  |  | 41.09 ± 1.05 | 45.57 ± 0.34 | 21.12 ± 2.34 | 1.23 ± 1.20 | 8.70 ± 3.21 |  |  |  |
